Experimental data: ChEMBL document CHEMBL3885861, “Open TG-GATES”

Species: Rattus norvegicus
Experiment: Open TG-GATES - Regimen: Single
Format: toxicity, organism-based, Sprague-Dawley
Design: regimen Single, gender Male, age 6 weeks
Conditions: in vivo, po, 1000 mg/kg, route gavage, dose level High; for APTT / Bas / Eos / Fbg / Hb / Ht / Lym / MCH / MCHC / MCV / Mono / Neu / PT / Plat / RBC / Ret / WBC: tissue Blood; for KIDNEY_L / KIDNEY_R / KIDNEY_TOTAL: tissue Kidney; for LIVER: tissue Liver; for A/G / ALP / ALT / AST / BUN / CRE / Ca / Cl / DBIL / GLC / IP / K / LDH / Na / PL / RALB / TBIL / TC / TG / TP / gamma-GTP: tissue Plasma

CCOC(=O)CCC(=O)O[C@H]1[C@H](O[C@@H]2[C@@H](C)[C@H](O[C@H]3C[C@@](C)(OC)[C@@H](O)[C@H](C)O3)[C@@H](C)C(=O)O[C@H](CC)[C@@](C)(O)[C@H](O)[C@@H](C)C(=O)[C@H](C)C[C@@]2(C)O)O[C@H](C)C[C@@H]1N(C)C [ERYTHROMYCIN ETHYLSUCCINATE]
TERMINAL_BW (3 h): 217 g
APTT (3 h): 22.2 s
Bas (3 h): 0%
Eos (3 h): 1%
Fbg (3 h): 305.8 mg/dL
Hb (3 h): 13 g/dL
Ht (3 h): 39.2%
Lym (3 h): 74.6%
MCH (3 h): 20.5 pg
MCHC (3 h): 33.1%
MCV (3 h): 61.8 fL
Mono (3 h): 2.8%
Neu (3 h): 20%
PT (3 h): 15.4 s
Plat (3 h): 131 x10_4/uL
RBC (3 h): 635.4 x10_4/ul
Ret (3 h): 8.2%
WBC (3 h): 77.4 x10_2/uL
KIDNEY_L (3 h): 1 g
KIDNEY_R (3 h): 1 g
KIDNEY_TOTAL (3 h): 1.9 g
LIVER (3 h): 9.6 g
A/G (3 h): 1.2
ALP (3 h): 1535.2 IU/L
ALT (3 h): 46 IU/L
AST (3 h): 76.6 IU/L
BUN (3 h): 11.8 mg/dL
CRE (3 h): 0.1 mg/dL
Ca (3 h): 10.4 mg/dL
Cl (3 h): 102.4 meq/L
DBIL (3 h): 0.014 mg/dL
GLC (3 h): 181.2 mg/dL
IP (3 h): 9.7 mg/dL
K (3 h): 3.7 meq/L
LDH (3 h): 158.4 IU/L
Na (3 h): 138 meq/L
PL (3 h): 143.8 mg/dL
RALB (3 h): 2.9 g/dL
TBIL (3 h): 0.05 mg/dL
TC (3 h): 74.2 mg/dL
TG (3 h): 40 mg/dL
TP (3 h): 5.4 g/dL
gamma-GTP (3 h): 1 IU/L
TERMINAL_BW (6 h): 219.9 g
APTT (6 h): 23.4 s
Bas (6 h): 0%
Eos (6 h): 1%
Fbg (6 h): 315 mg/dL
Hb (6 h): 13.3 g/dL
Ht (6 h): 40.7%
Lym (6 h): 73.2%
MCH (6 h): 20.6 pg
MCHC (6 h): 32.8%
MCV (6 h): 62.9 fL
Mono (6 h): 3.2%
Neu (6 h): 21%
PT (6 h): 15.7 s
Plat (6 h): 134.9 x10_4/uL
RBC (6 h): 647.6 x10_4/ul
Ret (6 h): 7.9%
WBC (6 h): 93.4 x10_2/uL
KIDNEY_L (6 h): 1 g
KIDNEY_R (6 h): 1.1 g
KIDNEY_TOTAL (6 h): 2.1 g
LIVER (6 h): 9.1 g
A/G (6 h): 1.2
ALP (6 h): 1632.2 IU/L
ALT (6 h): 45.8 IU/L
AST (6 h): 79.8 IU/L
BUN (6 h): 10.2 mg/dL
CRE (6 h): 0.1 mg/dL
Ca (6 h): 10.6 mg/dL
Cl (6 h): 104 meq/L
DBIL (6 h): 0.012 mg/dL
GLC (6 h): 176.8 mg/dL
IP (6 h): 10 mg/dL
K (6 h): 4 meq/L
LDH (6 h): 180 IU/L
Na (6 h): 138.8 meq/L
PL (6 h): 140.4 mg/dL
RALB (6 h): 2.9 g/dL
TBIL (6 h): 0.046 mg/dL
TC (6 h): 68.4 mg/dL
TG (6 h): 43.4 mg/dL
TP (6 h): 5.4 g/dL
gamma-GTP (6 h): 1.4 IU/L
TERMINAL_BW (9 h): 213.4 g
APTT (9 h): 23.1 s
Bas (9 h): 0%
Eos (9 h): 1%
Fbg (9 h): 304.8 mg/dL
Hb (9 h): 13.5 g/dL
Ht (9 h): 40.8%
Lym (9 h): 76.2%
MCH (9 h): 20.8 pg
MCHC (9 h): 33.1%
MCV (9 h): 62.8 fL
Mono (9 h): 2.6%
Neu (9 h): 19.8%
PT (9 h): 15.4 s
Plat (9 h): 121.3 x10_4/uL
RBC (9 h): 650.4 x10_4/ul
Ret (9 h): 7.2%
WBC (9 h): 67.2 x10_2/uL
KIDNEY_L (9 h): 1 g
KIDNEY_R (9 h): 1 g
KIDNEY_TOTAL (9 h): 2 g
LIVER (9 h): 8.5 g
A/G (9 h): 1.2
ALP (9 h): 1688.2 IU/L
ALT (9 h): 40.4 IU/L
AST (9 h): 73 IU/L
BUN (9 h): 9 mg/dL
CRE (9 h): 0.1 mg/dL
Ca (9 h): 10.5 mg/dL
Cl (9 h): 105.8 meq/L
DBIL (9 h): 0 mg/dL
GLC (9 h): 173.8 mg/dL
IP (9 h): 9.7 mg/dL
K (9 h): 4.2 meq/L
LDH (9 h): 169.2 IU/L
Na (9 h): 139.2 meq/L
PL (9 h): 144.4 mg/dL
RALB (9 h): 3 g/dL
TBIL (9 h): 0.036 mg/dL
TC (9 h): 69.2 mg/dL
TG (9 h): 54.4 mg/dL
TP (9 h): 5.5 g/dL
gamma-GTP (9 h): 1 IU/L
TERMINAL_BW (24 h): 227.7 g
APTT (24 h): 20.2 s
Bas (24 h): 0%
Eos (24 h): 1%
Fbg (24 h): 337.4 mg/dL
Hb (24 h): 13.9 g/dL
Ht (24 h): 41.8%
Lym (24 h): 85.4%
MCH (24 h): 20.9 pg
MCHC (24 h): 33.2%
MCV (24 h): 62.8 fL
Mono (24 h): 3%
Neu (24 h): 8.8%
PT (24 h): 16.3 s
Plat (24 h): 125.6 x10_4/uL
RBC (24 h): 666 x10_4/ul
Ret (24 h): 7.1%
WBC (24 h): 93.9 x10_2/uL
KIDNEY_L (24 h): 1 g
KIDNEY_R (24 h): 1 g
KIDNEY_TOTAL (24 h): 2 g
LIVER (24 h): 9.4 g
A/G (24 h): 1.2
ALP (24 h): 1448.8 IU/L
ALT (24 h): 34 IU/L
AST (24 h): 66.4 IU/L
BUN (24 h): 16.8 mg/dL
CRE (24 h): 0.1 mg/dL
Ca (24 h): 10.6 mg/dL
Cl (24 h): 107.6 meq/L
DBIL (24 h): 0 mg/dL
GLC (24 h): 197.8 mg/dL
IP (24 h): 9 mg/dL
K (24 h): 4.3 meq/L
LDH (24 h): 209.6 IU/L
Na (24 h): 142.8 meq/L
PL (24 h): 139.6 mg/dL
RALB (24 h): 3 g/dL
TBIL (24 h): 0.024 mg/dL
TC (24 h): 86.6 mg/dL
TG (24 h): 53.2 mg/dL
TP (24 h): 5.6 g/dL
gamma-GTP (24 h): 1.2 IU/L
